The source of these data is patent US20130281396A1, “TREATMENT OF DISEASES BY EPIGENETIC REGULATION” (RVX Therapeutics Inc., priority 2012, published 2013).

One data set has as its system Caco-2 cells. The data set is described as follows: Caco-2 permeability (in vitro Caco-2 intestinal transport model). In kind it is in vitro ADME. The source says:
The Caco-2 cell drug transport model is widely used for screening compounds in drug discovery to assess intestinal transport and predict absorption rates.
(Caco-2 cells form a polarised layer with tight junctions and transporters.)

For data set [1] the following is noted: value from S. P. Ng et al. (2005), footnote *, cited from earlier work.
Another data set concerns the target T1, Brd4 bromodomain 1 (Homo sapiens, UniProt O60885).
T1 construct: Illustrative results with the first bromodomain of Brd4; made in house; host or cells: E. coli BL21(DE3)
Put plainly: Inhibition of tetra-acetylated histone H4 binding to BET bromodomain (TR-FRET). The following applies: His-tagged first bromodomain of Brd4 (200 nM), biotinylated tetra-acetylated histone H4 peptide, 2 hours at room temperature. As to the method:
Proteins were cloned and overexpressed with a N-terminal 6×His tag, then purified by nickel affinity followed by size exclusion chromatography. Briefly, E. coli BL21(DE3) cells were transformed with a recombinant expression vector encoding N-terminally Nickel affinity tagged bromodomains from Brd2, Brd3, Brd4. Cell cultures were incubated at 37° C. with shaking to the appropriate density and induced overnight with IPTG. The supernatant of lysed cells was loaded onto Ni-IDA column for purification. Eluted protein was pooled, concentrated and further purified by size exclusion chromatography. Fractions representing monomeric protein were pooled, concentrated, aliquoted, and frozen at −80° C. for use in subsequent experiments.
Binding of tetra-acetylated histone H4 and BET bromodomains was confirmed by a Time Resolved Fluorescence Resonance Energy Transfer (TR-FRET) method. N-terminally His-tagged bromodomains (200 nM) and biotinylated tetra-acetylated histone H4 peptide (25-50 nM, Millipore) were incubated in the presence of Europium Cryptate-labeled streptavidin (Cisbio Cat. #610SAKLB) and XL665-labeled monoclonal anti-His antibody (Cisbio Cat. #61HISXLB) in a white 96 well microtiter plate (Greiner). For inhibition assays, serially diluted test compound was added to these reactions in a 0.2% final concentration of DMSO. Final buffer concentrations were 30 mM HEPES pH 7.4, 30 mM NaCl, 0.3 mM CHAPS, 20 mM phosphate pH 7.0, 320 mM KF, 0.08% BSA). After 2 hours incubation at room temperature, the fluorescence by FRET was measured at 665 and 620 nm by a SynergyH4 plate reader (Biotek). Illustrative results with the first bromodomain of Brd4. The binding inhibitory activity was shown by a decrease in 665 nm fluorescence relative to 620 nm. IC50 values were determined from a dose response curve.

Each structure is given as a SMILES string. ≈ marks a conversion by molar mass, not a printed value. Where two headings read alike, the source gives them in different places.

The melting point is the temperature, or range, at which the solid turns liquid. `CC(=O)Oc1ccc(-c2cc(=O)c3cccnc3o2)cc1` [Example 12, 4-(4-Oxo-4H-pyrano[2,3-b]pyridine-2-yl)phenyl acetate] yielded a melting point of 167 to 169 °C.
For `O=c1cc(-c2ccc(O)cc2)oc2cc(O)cc(O)c12` [5,7-dihydroxy-2-(4-hydroxyphenyl)-4H-chomen-4-one], the “Apparent permeability (Papp)” value in the data set on Caco-2 cells amounted to 1.5e-06 cm/s. The “Solubility (PBS)” value in data set [1] is 3.37* μM; in data set [1] (listed as apigenin), 3.27 µM (≈ 0.884 µg/mL).
As to `O=c1cc(-c2ccc(OCCO)cc2)oc2ncccc12` [Example 11, 2-(4-(2-Hydroxyethoxy)phenyl)-4H-pyrano[2,3-b]pyridine-4-one], the melting point is 157 to 159 °C.
Take `Oc1ccc(C=Cc2cc(O)cc(O)c2)cc1` [Resveratrol]: the “Apparent permeability (Papp)” value in the data set on Caco-2 cells amounted to 3.34e-06 cm/s.
For the molecule `O=c1cc(-c2ccc(O)cc2)oc2cccnc12` [Example 2, 2-(4-Hydroxy-phenyl)-pyrano[3,2-b]pyridin-4-one], on Brd4 bromodomain 1, the “FRET activity (<50 uM)” value was “Active”.
Molecule `O=c1cc(-c2ccc(O)c(F)c2)oc2ncccc12` [Example 4, 2-(3-Fluoro-4-hydroxyphenyl)pyrano[2,3-b]pyridine-4-one] gave a melting point of 267 to 268 °C.
With `O=c1cc(-c2ccc(O)c(Cl)c2)oc2ncccc12` [Example 7, 2-(3-Chloro-4-hydroxyphenyl)-4H-pyrano[2,3-b]pyridine-4-one], the melting point lay within 259 to 262 °C.
`O=c1cc(-c2ccc(O)cc2)oc2ccncc12` [Example 6, 2-(4-Hydroxyphenyl)-4H-pyrano[3,2-c]pyridin-4-one] displayed a melting point of 306 to 308 °C.
Consider `O=c1cc(-c2ccc(O)cc2)oc2ncccc12` [Example 1, 2-(4-Hydroxy-phenyl)-pyrano[2,3-b]pyridin-4-one], for which the “FRET activity (<50 uM)” value on Brd4 bromodomain 1 was “Active”.
In the case of `CCCO` [Propanol], the “% Transported Paap” value in the data set on Caco-2 cells amounted to 1.01e-05 cm/s.
As to `O=c1cc(-c2ccc(O)cc2)oc2cnccc12` [Example 3, 2-(4-Hydroxyphenyl)-pyrano[2,3-c]pyridin-4-one], the melting point was 294 to 296 °C.
`Cc1cc(-c2cc(=O)c3cccnc3o2)ccc1O` [Example 5, 2-(4-Hydroxy-3-methylphenyl)-4H-pyrano[2,3-b]pyridine-4-one] registered a melting point of 300 to 302 °C.
The molecule `O=c1cc(-c2ccc(O)c(Br)c2)oc2ncccc12` [Example 8, 2-(3-Bromo-4-hydroxyphenyl)-4H-pyrano[2,3-b]pyridin-4-one] returned a melting point of 267 to 272 °C. Also, the “FRET activity (<50 uM)” value at Brd4 bromodomain 1 is recorded as “Active”.
For `COc1ccc(-c2cc(=O)c3cccnc3o2)cc1` [Example 10, 2-(4-Methoxyphenyl)-4H-pyrano[2,3-b]pyridine-4-one], the melting point lay within 269 to 270 °C.
The same measure, in the same setting: under `O=c1cc(-c2ccc(O)c(CO)c2)oc2ncccc12` [Example 13, 2-(4-Hydroxy-3-(hydroxymethyl)phenyl)-4H-pyrano[2,3′-b]pyridine-4-one] stands 226 to 227 °C; under `COc1cc(-c2cc(=O)c3cccnc3o2)ccc1O` [Example 9, 2-(4-Hydroxy-3-methoxyphenyl)-4H-pyrano[2,3-b]pyridine-4-one], 253 to 255 °C.
